According to ChEMBL document CHEMBL1201862, “PubChem BioAssay data set” (2004):
Structures can show the parent of a compound that is named as a salt.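 48-hour exposure; five concentrations; linearly interpolated endpoints. Abbreviation: GI50, concentration required for 50% inhibition of growth.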 Calls of active or inactive are those of the source. Rule as the data show it: active = GI50 up to about 1.1 µM and inactive = higher.

Tests used:
Assay in all cases: NCI anticancer screen, dose series, 48 h
[1] = test system: 786-0
[2] = test system: DU-145
[3] = test system: Hs-578T
[4] = test system: MDA-MB-231
[5] = test system: MDA-N
[6] = test system: T47D
[7] = test system: HOP-18
[8] = test system: LXFL 529
[9] = test system: RXF 631

Compound	GI50 [1]	GI50 [2]	GI50 [3]	GI50 [4]	GI50 [5]	GI50 [6]	GI50 [7]	GI50 [8]	other results
CNCCC=C1c2ccccc2CCc2ccccc21 [NORTRIPTYLINE HYDROCHLORIDE]	14.6 µM (inactive)	14.5 µM (inactive)	19.6 µM (inactive)	> 37 µM (inactive)	15.6 µM (inactive)	9.23 µM (inactive)	–	–	–
CSCSCC(CO)NC(=O)/C(C)=C\c1c(C)[nH]c(=O)[nH]c1=O (centres undefined)	–	–	–	–	–	–	> 250 µM (inactive)	–	–
C[C@]12CC[C@H]3[C@@H](CC=C4C[C@@H](O)CC[C@@]43C)[C@@H]1C/C(=C\c1ccc([N+](=O)[O-])cc1)[C@@H]2O	10.9 µM (inactive)	11 µM (inactive)	16.9 µM (inactive)	7.93 µM (inactive)	–	4.38 µM (inactive)	–	–	–
CCCCn1cc[n+](-c2nc3ccccc3n2C)c1	–	–	–	–	–	–	> 100 µM (inactive)	> 100 µM (inactive)	GI50 [9]: > 100 µM (inactive)
c1ccc(Nc2nnc(-c3nsc4ccccc34)o2)cc1	–	–	–	–	–	–	> 100 µM (inactive)	85.5 µM (inactive)	–
CN1CCc2[nH]c3ccccc3c2C1	–	–	–	–	–	–	> 100 µM (inactive)	–	–
CCCc1c(-c2ccccc2)[nH]c2ccccc2c1=O	–	> 100 µM (inactive)	> 100 µM (inactive)	32.2 µM (inactive)	41.4 µM (inactive)	25.9 µM (inactive)	–	–	–
Cc1cc(C)c(NC(=O)/C=C/c2ccccc2)c(C)c1	–	–	57.7 µM (inactive)	–	–	–	–	–	–
COc1ccc(/C=C2/C(=O)N(C(=O)c3ccccc3O)N=C2C)cc1	0.598 µM (active)	0.192 µM (active)	–	0.126 µM (active)	0.125 µM (active)	4.32 µM (inactive)	–	0.205 µM (active)	–
COc1cc2c(cc1OC)C1Cc3cc(OC)c(OC)cc3C(C2)O1	–	> 100 µM (inactive)	–	29.1 µM (inactive)	> 100 µM (inactive)	58.5 µM (inactive)	–	–	–
CC(C)OP(=O)(OC(C)C)c1ncn(-c2ccc([N+](=O)[O-])cc2)n1	–	–	–	–	–	–	–	> 100 µM (inactive)	–
CC(=O)Oc1ccc(C2COc3cc(OC(C)=O)c(OC(C)=O)cc3C2)cc1 (centres undefined)	–	–	–	–	–	–	12.8 µM (inactive)	–	–
N#CCCN(c1ccc(/C=N/c2cccc([N+](=O)[O-])c2)cc1)S(=O)(=O)c1ccccc1	> 100 µM (inactive)	–	–	–	–	–	–	> 100 µM (inactive)	GI50 [9]: > 100 µM (inactive)
